Assay: odor evaluation of filter papers treated with active agent and artificial perspiration mixture by six trained testers
Conditions: 0.5-wt % solution in ethanol on filter paper; 24 hours at room temperature; scale 0 (no difference from ethanol control) to 4 (very much better odor reduction)
Excerpt: An artificial perspiration mixture was produced by mixing different short-chain fatty acids at specific quantitative ratios (C6, C8, C9, C10, isovaleric acid). respective 0.5-wt % solutions in ethanol were produced of each of the active agents and active-agent combinations to be tested, applied in a standardized quantity onto filter paper, and dried for one hour at room temperature. The artificial perspiration mixture was then applied in a standardized quantity, and the filters were stored for 24 hours at room temperature in a closed container. An odor evaluation of the samples was carried out by six trained testers using a scale from 0 (no difference from ethanol control) to 4 (very much better odor reduction as compared with ethanol control).

SMILES	reduction in perspiration odor as compared with the ethanol control
CC(C)[C@@H]1CC[C@@H](C)C[C@H]1O (racemic) [DL-Menthol, DL-menthol]	1.67 units
C/C=C\c1ccc(OC)cc1 [anethole]	2.42 units
CC12CCC(CC1)C(C)(C)O2 [eucalyptol, 1,3,3-trimethyl-2-oxabicyclo[2.2.2]octane]	0.92 units

From US20140248227A1, “DEODORIZING COMPOSITIONS” (Henkel AG & Co. KGaA, priority 2011, published 2014)
